# In PubChem BioAssay AID330 (DTP/NCI, 2004):
# Values joined by “and” are separate entries in the source; they are usually repeats but may differ in a detail not shown here. Equal values may be shown once. Inconclusive results and toxic doses are left out.
# Test system: P388 leukemia ip, CD2F1 mice, survival T/C
# Test: NCI In Vivo Anticancer Drug Screen. Data for tumor model P388 Leukemia (intraperitoneal) in CD2F1 (CDF1) mice
# Details: endpoint: median survival time, higher = longer survival
# In short: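 Mice carrying the transplanted tumor received test compound or vehicle. Survival was recorded in each group, and the value is the treated-group measurement divided by that of the vehicle-treated control group.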
# [1] = dose: 100.0 mg/kg/injection, schedule: Q01DX001 (ip), vehicle: Klucel (hydroxypropylcellulose) (HPC)
# [2] = dose: 200.0 mg/kg/injection, schedule: Q01DX001 (ip), vehicle: Klucel (hydroxypropylcellulose) (HPC)
# [3] = dose: 50.0 mg/kg/injection, schedule: Q01DX005 (ip), vehicle: Klucel (hydroxypropylcellulose) (HPC)
# [4] = dose: 100.0 mg/kg/injection, schedule: Q01DX005 (ip), vehicle: Klucel (hydroxypropylcellulose) (HPC)
# [5] = dose: 200.0 mg/kg/injection, schedule: Q01DX005 (ip), vehicle: Klucel (hydroxypropylcellulose) (HPC)
# [6] = dose: 50.0 mg/kg/injection, schedule: Q01DX005 (ip), vehicle: saline with Tween-80
# [7] = dose: 100.0 mg/kg/injection, schedule: Q01DX005 (ip), vehicle: saline with Tween-80
# [8] = dose: 200.0 mg/kg/injection, schedule: Q01DX005 (ip), vehicle: saline with Tween-80
# [9] = dose: 60.0 mg/kg/injection, schedule: Q01DX005 (ip), vehicle: Klucel (hydroxypropylcellulose) (HPC)
# [10] = dose: 60.0 mg/kg/injection, schedule: Q01DX005 (ip), vehicle: saline with Tween-80
# [11] = dose: 120.0 mg/kg/injection, schedule: Q01DX005 (ip), vehicle: saline with Tween-80
# [12] = dose: 240.0 mg/kg/injection, schedule: Q01DX005 (ip), vehicle: saline with Tween-80
# [13] = dose: 100.0 mg/kg/injection, schedule: Q01DX009 (ip), vehicle: saline with Tween-80
# [14] = dose: 200.0 mg/kg/injection, schedule: Q01DX009 (ip), vehicle: saline with Tween-80
# [15] = dose: 400.0 mg/kg/injection, schedule: Q01DX009 (ip), vehicle: saline with Tween-80
structure (smiles),measurement,setting,value
C/C=C1/CNC2Cc3c([nH]c4ccccc34)C(c3ccc4c5c([nH]c4c3)C3CC4CC(CC)C3N(CC5)C4)CC1C2C(=O)OC (stereo unspecified),T/C,"dose: 2.5 mg/kg/injection, schedule: Q01DX009 (ip), vehicle: saline",106 % of control
same,T/C,"dose: 5.0 mg/kg/injection, schedule: Q01DX009 (ip), vehicle: saline",100 % of control
CCN(CC)C(=O)Cn1cc([N+](=O)[O-])sc1=NC(=O)c1ccco1,T/C,[1],100 % of control
same,T/C,[2],101 % of control
CC1=C(C(=O)O)CCC1(C)C,T/C,"dose: 100.0 mg/kg/injection, schedule: Q04DX002 (ip), vehicle: saline with Tween-80",98 % of control
same,T/C,"dose: 200.0 mg/kg/injection, schedule: Q04DX002 (ip), vehicle: saline with Tween-80",101 % of control
same,T/C,"dose: 400.0 mg/kg/injection, schedule: Q04DX002 (ip), vehicle: saline with Tween-80",104 % of control
CCC(=O)Nc1nnc(SCCCCCCCCCCCCSc2nnc(NC(=O)CC)s2)s1,T/C,[3],96 % of control
same,T/C,[4],88 % of control
same,T/C,[5],87 % of control
Oc1ccc(O)c2c(O)c3ccccc3c(O)c12,T/C,[6],102 % of control
same,T/C,[7],107 % of control
same,T/C,[8],93 % of control
CCCCCCCCCCC(O)C1CCC(C2CCC(C(O)C(=O)CCCCCCCCCCCC3CC(C)OC3=O)O2)O1 (stereo unspecified),T/C,"dose: 0.35 mg/kg/injection, schedule: Q01DX005 (ip), vehicle: Klucel (hydroxypropylcellulose) (HPC)",107 % of control and 115 % of control
same,T/C,"dose: 0.7 mg/kg/injection, schedule: Q01DX005 (ip), vehicle: Klucel (hydroxypropylcellulose) (HPC)",112 % of control and 119 % of control
same,T/C,"dose: 1.4 mg/kg/injection, schedule: Q01DX005 (ip), vehicle: Klucel (hydroxypropylcellulose) (HPC)",120 % of control
O=[N+]([O-])c1cccnc1S(=O)(=O)c1ccccn1,T/C,"dose: 6.25 mg/kg/injection, schedule: Q01DX009 (ip), vehicle: Klucel (hydroxypropylcellulose) (HPC)",100 % of control
same,T/C,"dose: 12.5 mg/kg/injection, schedule: Q01DX009 (ip), vehicle: Klucel (hydroxypropylcellulose) (HPC)",100 % of control
O=NN(CCF)C(=O)NC12CC3CC(CC(C3)C1)C2,T/C,"dose: 22.0 mg/kg/injection, schedule: Q04DX003 (ip), vehicle: saline with Tween-80",175 % of control
same,T/C,"dose: 33.0 mg/kg/injection, schedule: Q04DX003 (ip), vehicle: saline with Tween-80",195 % of control
same,T/C,"dose: 50.0 mg/kg/injection, schedule: Q04DX003 (ip), vehicle: saline with Tween-80",225 % of control
same,T/C,"dose: 75.0 mg/kg/injection, schedule: Q04DX003 (ip), vehicle: saline with Tween-80",240 % of control
same,T/C,"dose: 100.0 mg/kg/injection, schedule: Q04DX003 (ip), vehicle: Klucel (hydroxypropylcellulose) (HPC)",259 % of control
N=C(N)c1ccc(NC(=S)Nc2ccc(C(=N)N)cc2)cc1,T/C,"dose: 6.25 mg/kg/injection, schedule: Q01DX009 (ip), vehicle: saline",101 % of control
same,T/C,"dose: 12.5 mg/kg/injection, schedule: Q01DX009 (ip), vehicle: saline",99 % of control
same,T/C,"dose: 25.0 mg/kg/injection, schedule: Q01DX009 (ip), vehicle: saline",99 % of control
O=C(O)c1cc2cccc([N+](=O)[O-])c2[se]1,T/C,"dose: 50.0 mg/kg/injection, schedule: Q01DX009 (ip), vehicle: suspension in saline",106 % of control
same,T/C,"dose: 100.0 mg/kg/injection, schedule: Q01DX009 (ip), vehicle: suspension in saline",96 % of control
same,T/C,"dose: 200.0 mg/kg/injection, schedule: Q01DX009 (ip), vehicle: suspension in saline",113 % of control
COc1ccc2c(c1OC)C(=C(C#N)C#N)N1CCc3cc4c(cc3C1=C2)OCO4,T/C,"dose: 0.63 mg/kg/injection, schedule: Q01DX009 (ip), vehicle: distilled water + Tween-80",103 % of control
same,T/C,"dose: 1.25 mg/kg/injection, schedule: Q01DX009 (ip), vehicle: distilled water + Tween-80",94 % of control
same,T/C,"dose: 2.5 mg/kg/injection, schedule: Q01DX009 (ip), vehicle: distilled water + Tween-80",112 % of control
same,T/C,"dose: 5.0 mg/kg/injection, schedule: Q01DX009 (ip), vehicle: distilled water + Tween-80",112 % of control
same,T/C,"dose: 10.0 mg/kg/injection, schedule: Q01DX009 (ip), vehicle: distilled water + Tween-80",108 % of control
same,T/C,"dose: 20.0 mg/kg/injection, schedule: Q01DX009 (ip), vehicle: distilled water + Tween-80",121 % of control
CC(C)(C)N1COC2CCCCC21 (stereo unspecified),T/C,"dose: 15.0 mg/kg/injection, schedule: Q01DX005 (ip), vehicle: Klucel (hydroxypropylcellulose) (HPC)",106 % of control
same,T/C,"dose: 30.0 mg/kg/injection, schedule: Q01DX005 (ip), vehicle: Klucel (hydroxypropylcellulose) (HPC)",102 % of control
same,T/C,[9],106 % of control and 117 % of control
same,T/C,"dose: 240.0 mg/kg/injection, schedule: Q01DX005 (ip), vehicle: Klucel (hydroxypropylcellulose) (HPC)",106 % of control
CN(C)C1=NC(N(C)C)=C2C=C(C(C)(C)C)C=C12,T/C,[9],101 % of control
same,T/C,"dose: 120.0 mg/kg/injection, schedule: Q01DX005 (ip), vehicle: Klucel (hydroxypropylcellulose) (HPC)",101 % of control
CCO/C=C/C(=O)O,T/C,[10],106 % of control
same,T/C,[11],100 % of control
same,T/C,[12],107 % of control
CCOC(=O)C(=O)Nc1ccccc1,T/C,[13],99 % of control
same,T/C,[14],97 % of control
same,T/C,[15],99 % of control
COc1ccc(C(c2cc3c(cc2O)OCO3)n2ccnc2)cc1 (stereo unspecified),T/C,[10],99 % of control
same,T/C,[11],99 % of control
same,T/C,[12],96 % of control
O=C1C2CCC(C2)C1CN1CCCCC1 (stereo unspecified),T/C,"dose: 6.25 mg/kg/injection, schedule: Q01DX005 (ip), vehicle: saline with Tween-80",101 % of control
same,T/C,"dose: 12.5 mg/kg/injection, schedule: Q01DX005 (ip), vehicle: saline with Tween-80",98 % of control
same,T/C,"dose: 25.0 mg/kg/injection, schedule: Q01DX005 (ip), vehicle: saline with Tween-80",103 % of control
O=C(Nc1ccc(C(=O)O)cc1)Nc1ccc(C(=O)O)cc1,T/C,"dose: 100.0 mg/kg/injection, schedule: Q04DX002 (ip), vehicle: Klucel (hydroxypropylcellulose) (HPC)",99 % of control
same,T/C,"dose: 200.0 mg/kg/injection, schedule: Q04DX002 (ip), vehicle: Klucel (hydroxypropylcellulose) (HPC)",109 % of control
Cc1c(NC(=S)Nc2ccccc2C(F)(F)F)c(=O)n(-c2ccccc2)n1C,T/C,"dose: 50.0 mg/kg/injection, schedule: Q01DX009 (ip), vehicle: Klucel (hydroxypropylcellulose) (HPC)",92 % of control
same,T/C,"dose: 100.0 mg/kg/injection, schedule: Q01DX009 (ip), vehicle: Klucel (hydroxypropylcellulose) (HPC)",96 % of control
same,T/C,"dose: 200.0 mg/kg/injection, schedule: Q01DX009 (ip), vehicle: Klucel (hydroxypropylcellulose) (HPC)",100 % of control
COc1ccc2cc3cccc[n+]3cc2c1,T/C,"dose: 0.19 mg/kg/injection, schedule: Q01DX005 (ip), vehicle: Klucel (hydroxypropylcellulose) (HPC)",100 % of control
same,T/C,"dose: 0.39 mg/kg/injection, schedule: Q01DX005 (ip), vehicle: Klucel (hydroxypropylcellulose) (HPC)",110 % of control
same,T/C,"dose: 0.78 mg/kg/injection, schedule: Q01DX005 (ip), vehicle: Klucel (hydroxypropylcellulose) (HPC)",108 % of control and 97 % of control
CC1C(=O)C(C)C(c2ccc([N+](=O)[O-])cc2)OC1c1ccccc1 (stereo unspecified),T/C,"dose: 50.0 mg/kg/injection, schedule: Q01DX001 (ip), vehicle: suspension in saline",96 % of control
same,T/C,"dose: 100.0 mg/kg/injection, schedule: Q01DX001 (ip), vehicle: suspension in saline",100 % of control
same,T/C,"dose: 200.0 mg/kg/injection, schedule: Q01DX001 (ip), vehicle: suspension in saline",102 % of control
COc1ccc2c(c1)C(O)C(CO)C(C(=O)O)C2 (stereo unspecified),T/C,[3],106 % of control
same,T/C,[4],101 % of control
same,T/C,[5],101 % of control
Cc1c(C=O)cc(-c2ccccc2)n1C,T/C,[6],89 % of control
same,T/C,[7],89 % of control
same,T/C,[8],91 % of control
CCC1=NOC(n2c3ccccc3c3ccccc32)C1 (stereo unspecified),T/C,[3],100 % of control
same,T/C,[4],100 % of control
same,T/C,[5],95 % of control
Cc1cnc(F)nc1F,T/C,"dose: 50.0 mg/kg/injection, schedule: Q01DX005 (ip), vehicle: saline",94 % of control
same,T/C,"dose: 100.0 mg/kg/injection, schedule: Q01DX005 (ip), vehicle: saline",97 % of control
O=C(O)c1cn2c(n1)sc1ccccc12,T/C,[1],97 % of control
same,T/C,[2],92 % of control
same,T/C,"dose: 400.0 mg/kg/injection, schedule: Q01DX001 (ip), vehicle: Klucel (hydroxypropylcellulose) (HPC)",96 % of control
Cc1ccc(S(=O)(=O)O/N=C2/CCC(C)(C)c3ccccc32)cc1,T/C,[13],90 % of control
same,T/C,[14],100 % of control
same,T/C,[15],90 % of control
